From patent EP0354818A2, “Pharmaceutical compositions containing polyaromatic compounds as active ingredient and their use” (HADASSAH MEDICAL ORGANIZATION, priority 1988, dated 1990)

Experiments:
[1] = target: T1, ESb mouse lymphoma heparanase (Mus musculus, UniProt Q6YGZ1); test: Inhibition of heparanase degradation of 35S labelled ECM; type: biochemical; details: compound 10 µgr/ml, 24 hrs incubation; for Total low-mol-wt. HS fragments released by heparanase (cpm): control 17,756 cpm
T1 construct: endogenous in cells; host or cells: ESb mouse lymphoma cells
T1 sequence (Q6YGZ1 150-535 limits assumed): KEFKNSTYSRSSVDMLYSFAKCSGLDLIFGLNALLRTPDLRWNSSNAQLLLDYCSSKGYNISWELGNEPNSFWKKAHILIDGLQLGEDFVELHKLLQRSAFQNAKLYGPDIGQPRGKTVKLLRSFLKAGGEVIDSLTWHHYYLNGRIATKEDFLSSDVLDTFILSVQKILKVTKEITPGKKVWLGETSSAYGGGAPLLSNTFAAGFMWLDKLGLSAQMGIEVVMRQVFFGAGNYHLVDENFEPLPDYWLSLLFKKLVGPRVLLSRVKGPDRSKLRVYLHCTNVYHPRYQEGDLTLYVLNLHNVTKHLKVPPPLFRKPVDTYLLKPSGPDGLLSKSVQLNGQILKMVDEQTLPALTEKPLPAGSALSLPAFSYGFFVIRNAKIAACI
T1 sequence (Q6YGZ1 28-101 limits assumed): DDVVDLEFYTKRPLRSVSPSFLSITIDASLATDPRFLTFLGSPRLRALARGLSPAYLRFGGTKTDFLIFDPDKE
Protocol: The ability of several of the above mentioned compounds to inhibit lymphoma-cell derived heparanase was tested in the assay system described by Vlodavsky et. al. (Cancer Research. 43: 2704-2711 (1983). ³⁵S labelled ECM was incubated for 24 hrs with ESb mouse lymphoma heparanase in the presence of 10 ugr ml of the indicated compounds. Degradation of the sulfated glycosaminoglycan was followed by gel filtration of the supernatants. Heparanase activity is expressed as the total amount of labelled low-molecular-weight fragments released from the ECM substrate. The results are summarized in Table III.

[2] = target: T2, lipoprotein lipase (LPL) (Rattus norvegicus, UniProt Q06000); test: LPL activity in cultured heart cells and medium; type: cell-based; details: 24 hrs incubation of heart cells; for LPL activity: total: cells plus medium; for % increase in the total: versus 0 M
T2 construct: endogenous in cells; host or cells: F1 heart cell cultures from newborn rat hearts (mainly non-beating mesenchymal cells)
T2 sequence (Q06000 28-474): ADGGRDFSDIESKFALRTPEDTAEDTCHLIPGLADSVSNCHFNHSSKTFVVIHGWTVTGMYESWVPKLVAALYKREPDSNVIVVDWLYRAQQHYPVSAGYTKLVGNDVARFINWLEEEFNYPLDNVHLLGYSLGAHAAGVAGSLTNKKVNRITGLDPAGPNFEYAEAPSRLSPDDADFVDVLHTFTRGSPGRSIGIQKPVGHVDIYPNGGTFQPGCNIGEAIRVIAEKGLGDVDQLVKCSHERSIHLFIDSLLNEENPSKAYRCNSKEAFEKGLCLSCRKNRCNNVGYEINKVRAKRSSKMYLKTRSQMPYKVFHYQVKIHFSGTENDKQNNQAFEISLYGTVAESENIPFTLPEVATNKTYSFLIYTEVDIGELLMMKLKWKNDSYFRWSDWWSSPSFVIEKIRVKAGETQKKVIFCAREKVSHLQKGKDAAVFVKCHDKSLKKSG
Protocol: F₁ heart cell cultures were prepared from newborn rat hearts as previously described (Chajek, T. et al, Biochem. Biophys. Acta 528, 456-474(1978)). They consisted mainly of non-beating mesenchymal cells and were used 8-12 days after their isolation.
The enzyme activity was determined on aliquots of medium and of homogenates of cells which had been released from the petri dish with a rubber policeman in 1 ml of 0.025 M NH₃/NH₄C1 buffer (pH 8.1) containing 1 unit/ml of heparin. The assay system consisted of 0.1 ml of medium or 0.1 ml of cell homogenate ([…]) and 0.1 ml of substrate containing labeled triolein, prepared according to the method of Nilsson-Ehle and Schotz, (J. Lipid Res. 17, 536-541 (1976)). Incubations were carried out at 37°C for 45 min. The reaction was stopped by the addition of methanol/chloroform/heptane (1,4:1.25:1, v/v) and the extraction of fatty acids was performed according to the method of Belfrage and Vaughan (J. Lipid Res. 10, 341-344 (1969), as modified by Nilsson-Ehle and Schotz. Enzyme activity was calculated according to the formula of Nilsson-Ehle and Schotz.

[3] = target: T3, LPL (Rattus norvegicus, UniProt Q06000); test: Plasma levels of LPL after oral administration to rats; type: in vivo; details: 1ml of 10%-20% solution
T3 construct: from tissue; host or cells: rat plasma (in vivo, after oral aluminon)
T3 sequence (Q06000 28-474): T2 sequence (Q06000 28-474)
From the text: Moreover, since aluminon can be absorbed through the gastrointestinal tract, it can be used as an orally administrable anticoagulant (as opposed to heparin which has to be given by injection).

[4] = system: fresh human blood; test: Anticoagulant effect: partial thromboplastin time (PTT) in blood samples; details: citrated human blood, after addition of Ca++, control 30.5
Protocol: 0.25 ml of the indicated concentration of the drug (x10, diluted in saline) were added to 2.25 ml of fresh human blood, collected in the presence of citrate. PTT was measured following the addition of Ca⁺⁺.

Compound: CCN(Cc1cccc(S(=O)(=O)O)c1)c1ccc(C(=C2C=CC(=[N+](CC)Cc3cccc(S(=O)(=O)O)c3)C=C2)c2ccc(O)cc2S(=O)(=O)[O-])cc1 [Fast Green]
- % Inhibition [1]: 32%

Compound: O=S(=O)(O)c1ccc(N=C2C=CC(=C(c3ccc(Nc4ccc(S(=O)(=O)O)cc4)cc3)c3ccc(Nc4ccc(S(=O)(=O)O)cc4)cc3)C=C2)cc1 [Methyl Blue]
- % Inhibition [1]: 23%
- Total low-mol-wt. HS fragments released by heparanase (cpm) [1]: 13,676 cpm

Compound: Cc1cc(-c2ccc(/N=N/c3ccc4c(S(=O)(=O)O)cc(S(=O)(=O)O)c(N)c4c3O)c(C)c2)ccc1/N=N/c1ccc2c(S(=O)(=O)O)cc(S(=O)(=O)O)c(N)c2c1O [Evan's Blue]
- Total low-mol-wt. HS fragments released by heparanase (cpm) [1]: 6,986 cpm
- LPL activity: total ([2]; Evan's Blue 10⁻³ M): 7749 m mole FFA/h/dish
- % increase in the total ([2]; Evan's Blue 10⁻³ M): +139.4%
- LPL activity: total ([2]; Evan's Blue 10⁻⁴ M): 5230 m mole FFA/h/dish
- % increase in the total ([2]; Evan's Blue 10⁻⁴ M): +61.6%
- LPL activity: total ([2]; Evan's Blue 10⁻⁵ M): 4288 m mole FFA/h/dish
- % increase in the total ([2]; Evan's Blue 10⁻⁵ M): +32.5%

Compound: O=C(O)C1=CC(=C(c2ccc(O)c(C(=O)O)c2)c2ccc(O)c(C(=O)O)c2)C=CC1=O [Aluminon]
- plasma levels of LPL [3]: elevated by about an order of magnitude
- Total low-mol-wt. HS fragments released by heparanase (cpm) [1]: 3,822 cpm
- PTT ([4]; Aluminon final conc. 0.01 mg/ml): 30.5 s
- PTT ([4]; Aluminon final conc. 0.1 mg/ml): 190 s
- PTT ([4]; Aluminon final conc. 1 mg/ml): >300 s
